In US20070224593A1 (priority 2005, published 2007):

Legend:
[1] = molecular target: scrapie-form prion protein (PrP-d) (Ovis aries, UniProt P23907); conditions: retropharyngeal lymph nodes of TSE+ sheep, ex vivo; 100 μM, 10 min, RT; λex approx. 370 nm, λem approx. 450 nm; TSE status confirmed by PrP-d immunohistochemistry
[2] = molecular target: non-amyloid or pre-amyloid PrP-d (Ovis aries, UniProt P23907); format: binding; conditions: such compounds were previously believed to associate only with classical amyloid PrP-d isoforms
Chain of non-amyloid or pre-amyloid PrP-d (P23907 25-233 limits assumed): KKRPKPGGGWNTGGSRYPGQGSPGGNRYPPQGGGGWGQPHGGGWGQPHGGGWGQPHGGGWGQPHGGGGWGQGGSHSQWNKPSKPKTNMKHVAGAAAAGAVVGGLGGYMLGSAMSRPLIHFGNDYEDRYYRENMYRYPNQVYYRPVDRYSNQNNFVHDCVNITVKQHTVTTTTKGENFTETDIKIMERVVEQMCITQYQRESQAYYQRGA

[3] = molecular target: PrP-d (Ovis aries, UniProt P23907); format: binding; conditions: same section of unfixed lymphoid tissue from scrapie positive sheep
Chain of PrP-d (P23907 25-233 limits assumed): as above

Chain of scrapie-form prion protein (PrP-d) (P23907 25-233 limits assumed): as above

Compound	PrP-d detection and visualization by probe fluorescence [1]	Binding to non-amyloid or pre-amyloid PrP-d [2]	Correlation of probe imaging with antibody binding (immunohistochemistry, AEC) [3]
1,4-bis(4′-hydroxystyrl)-2-methoxybenzene [Me-X04]	detected and visualized	Binding	
O=C(O)c1cc(C=Cc2ccc(C=Cc3ccc(O)c(C(=O)O)c3)cc2)ccc1O [X-34, 1,4-bis(3-carboxy-4-hydroxyphenylethenyl)-benzene]		Binding	colocalization of the X34 binding and the antibody binding
